Experiments:
Format in all cases: in vivo, male Albino Sprague Dawley rats
[1] = Mortality in indomethacin-induced enteropathy in rats (Example 16); conditions: indomethacin […] BID + rifaximin product 50 mg/kg BID, 14 days
Procedure: A percentage of 100% of survivors was also recorded in vehicle control group (Group 1).

[2] = test system: indomethacin - induced microscopic intestinal damage; test: Histological analysis of intestinal damage in jejunum and ileum (Example 16); conditions: rats
Procedure: (§1) The whole intestinal tract was removed and processed for the evaluation of tissue myeloperoxidase (MPO) levels and histological analysis of intestinal damage in jejunum and ileum.
Pharmacol. Ther. 1993; 7:29-39. Upon removal, the whole intestinal tract was immediately injected with 10% formalin and left in the same fixative solution. After 30 min, it was opened along the anti-mesenteric border, cleaned of fecal content and fixed in 10% formalin for 24 h. Tissue samples were taken as described below and the full length of small intestine was measured.
In particular the following tissue samples were taken • Ileum: 1 cm of tissue proximal to the ileo-cecal valve was discarded and two specimens of 1.5-2 cm of ileum were taken at this edge as well as 5 cm away from the first ileum sample • Proximal jejunum: two specimens of 1.5-2 cm were taken 5 cm away from both the proximal and distal end of the 37.5% of the small intestine total length. • Distal jejunum: two specimens of 1.5-2 cm were taken 5 cm away from both the proximal and distal end of 81% of small intestine's total length.
After fixation, tissues were embedded into paraffin blocks and were cut into consecutive serial 3-μm sections for staining with hematoxylin and eosin. Histological damage was assessed by two observers, blind to the treatment. Each section was given a score of lesion (Type 1 to 3) (TABLE 23).
Quantitative assessment of histological damage was expressed as percentage of the total length of lesions over the total length of the histological section.

[3] = Blood hemoglobin levels in indomethacin-induced enteropathy in rats (Example 16)
Procedure: Twenty four hours after the last dose, the rats were euthanized and samples of blood were collected for the assessment of hemoglobin levels.
Hemoglobin analysis was performed on rat blood samples collected as reported above, by means of Quantichrom Hemoglobin assay kit (Bioassay Systems, Hayward, Calif., USA) and expressed as g/dL.

[4] = test system: myeloperoxidase (MPO); test: Tissue myeloperoxidase (MPO) levels in jejunum and ileum, ELISA (Example 16)
Procedure: as §1
Specimens of intestinal tissues (30 mg) were homogenized on ice with a polytron homogenizer (QIAGEN, Milan, Italy) in 0.6 mL of ice-cold lysis buffer (200 mM NaCl, 5 mM EDTA, 10 mM Tris, 10% glycerine, 1 mM PMSF, 1 μg/ml leupeptin and 28 μg/ml aprotinin (pH 7.4). The homogenate was centrifuged 2 times at 4° C. for 15 min at 1.500 g. The supernatant was diluted 1:5 and used for determination of MPO concentration by means of enzyme-linked immunosorbent assay (ELISA) (Hycult Biotech, Uden, Netherlands). All samples were assayed within 2 day after collection. The results were expressed as nanograms of MPO per milligram of intestinal tissue.

[5] = indomethacin […] BID 14 days, alone or with gastroresistant rifaximin 25 and 50 mg/kg BID or rifaximin polymorph alpha 50 mg/kg BID
[6] = rats, indomethacin […] BID 14 days, alone or with gastroresistant rifaximin 25 or 50 mg/kg BID or rifaximin polymorph alpha 50 mg/kg BID

CO[C@H]1/C=C/O[C@@]2(C)Oc3c(C)c(O)c4c(O)c(c5c(nc6cc(C)ccn65)c4c3C2=O)NC(=O)/C(C)=C\C=C\[C@H](C)[C@H](O)[C@@H](C)[C@@H](O)[C@@H](C)[C@H](OC(C)=O)[C@@H]1C [rifaximin, (2S, 16Z, 18E, 20S, 21S, 22R, 23R, 24R, 25S, 26S, 27S, 28E)-5,6, 21, 23, 25 pentahydroxy-27-methoxy-2,4, 11, 16, 20, 22, 24, 26-octamethyl-2,7-(epoxypentadeca-(1,11,13)trienimino) benzofuro (4,5-e) pyrido (1,2,-a benzimidazole-1,15(2H)dione, 25-acetate)]
Mortality (%) [1]: do not displayed death
Jejunum type 2 lesions, microscopic assessment (in words) [2, 5]: significantly reduced Type 2 lesions
Reduction in hemoglobin values ([3]; end of the treatment period (14 days), in respect to the control): 12%

CO[C@H]1/C=C/O[C@@]2(C)Oc3c(C)c(O)c4c(O)c(c5c(nc6cc(C)ccn65)c4c3C2=O)NC(=O)/C(C)=C\C=C\[C@H](C)[C@H](O)[C@@H](C)[C@@H](O)[C@@H](C)[C@H](OC(C)=O)[C@@H]1C [rifaximin polymorph alpha, rifaximin]
Mortality (%) [1]: not associated with deaths
Ileum type 1 lesions, microscopic assessment (in words) [2, 5]: significant reduction of Type 1 lesions
Ileum type 2 lesions, microscopic assessment (in words) [2, 5]: no significant differences were appreciated on the occurrence of type 2 lesions
Jejunum type 1 lesions, microscopic assessment (in words) [2, 5]: reduced the degree of type 1 lesions, although mean values were not significantly different
Lesions / histological damage in ileum and jejunum, overall (in words) ([2]; with indomethacin […] BID 14 days, gastroresistant rifaximin 25 and 50 mg/kg BID, rifaximin polymorph alpha 50 mg/kg BID): effective in the reduction of lesions
Blood hemoglobin concentration (in words) ([3]; indomethacin […] BID 14 days, alone or with gastroresistant rifaximin at both doses or rifaximin polymorph alpha 50 mg/kg BID): these levels were decreased
Reduction of MPO levels in respect to animals which did not receive rifaximin ([4]; rats treated with indomethacin, 14 days): about 22%
Ileum tissue MPO levels (in words) [4, 6]: blunted
Jejunum tissue MPO levels (in words) [4, 6]: did not exert any relevant effect
